From ChEMBL document CHEMBL1153168, “3D QSAR studies on 3,4-dihydroquinazolines as T-type calcium channel blocker by comparative molecular similarity indices analysis (CoMSIA)” (Bioorg Med Chem Lett, 2010)

Target: Voltage-dependent T-type calcium channel subunit alpha-1G (Homo sapiens, UniProt O43497)
Experiment: Inhibition of human T-type calcium channel alpha1G in HEK293 cells
Type: cell-based

Sequence of Voltage-dependent T-type calcium channel subunit alpha-1G (O43497 whole entry): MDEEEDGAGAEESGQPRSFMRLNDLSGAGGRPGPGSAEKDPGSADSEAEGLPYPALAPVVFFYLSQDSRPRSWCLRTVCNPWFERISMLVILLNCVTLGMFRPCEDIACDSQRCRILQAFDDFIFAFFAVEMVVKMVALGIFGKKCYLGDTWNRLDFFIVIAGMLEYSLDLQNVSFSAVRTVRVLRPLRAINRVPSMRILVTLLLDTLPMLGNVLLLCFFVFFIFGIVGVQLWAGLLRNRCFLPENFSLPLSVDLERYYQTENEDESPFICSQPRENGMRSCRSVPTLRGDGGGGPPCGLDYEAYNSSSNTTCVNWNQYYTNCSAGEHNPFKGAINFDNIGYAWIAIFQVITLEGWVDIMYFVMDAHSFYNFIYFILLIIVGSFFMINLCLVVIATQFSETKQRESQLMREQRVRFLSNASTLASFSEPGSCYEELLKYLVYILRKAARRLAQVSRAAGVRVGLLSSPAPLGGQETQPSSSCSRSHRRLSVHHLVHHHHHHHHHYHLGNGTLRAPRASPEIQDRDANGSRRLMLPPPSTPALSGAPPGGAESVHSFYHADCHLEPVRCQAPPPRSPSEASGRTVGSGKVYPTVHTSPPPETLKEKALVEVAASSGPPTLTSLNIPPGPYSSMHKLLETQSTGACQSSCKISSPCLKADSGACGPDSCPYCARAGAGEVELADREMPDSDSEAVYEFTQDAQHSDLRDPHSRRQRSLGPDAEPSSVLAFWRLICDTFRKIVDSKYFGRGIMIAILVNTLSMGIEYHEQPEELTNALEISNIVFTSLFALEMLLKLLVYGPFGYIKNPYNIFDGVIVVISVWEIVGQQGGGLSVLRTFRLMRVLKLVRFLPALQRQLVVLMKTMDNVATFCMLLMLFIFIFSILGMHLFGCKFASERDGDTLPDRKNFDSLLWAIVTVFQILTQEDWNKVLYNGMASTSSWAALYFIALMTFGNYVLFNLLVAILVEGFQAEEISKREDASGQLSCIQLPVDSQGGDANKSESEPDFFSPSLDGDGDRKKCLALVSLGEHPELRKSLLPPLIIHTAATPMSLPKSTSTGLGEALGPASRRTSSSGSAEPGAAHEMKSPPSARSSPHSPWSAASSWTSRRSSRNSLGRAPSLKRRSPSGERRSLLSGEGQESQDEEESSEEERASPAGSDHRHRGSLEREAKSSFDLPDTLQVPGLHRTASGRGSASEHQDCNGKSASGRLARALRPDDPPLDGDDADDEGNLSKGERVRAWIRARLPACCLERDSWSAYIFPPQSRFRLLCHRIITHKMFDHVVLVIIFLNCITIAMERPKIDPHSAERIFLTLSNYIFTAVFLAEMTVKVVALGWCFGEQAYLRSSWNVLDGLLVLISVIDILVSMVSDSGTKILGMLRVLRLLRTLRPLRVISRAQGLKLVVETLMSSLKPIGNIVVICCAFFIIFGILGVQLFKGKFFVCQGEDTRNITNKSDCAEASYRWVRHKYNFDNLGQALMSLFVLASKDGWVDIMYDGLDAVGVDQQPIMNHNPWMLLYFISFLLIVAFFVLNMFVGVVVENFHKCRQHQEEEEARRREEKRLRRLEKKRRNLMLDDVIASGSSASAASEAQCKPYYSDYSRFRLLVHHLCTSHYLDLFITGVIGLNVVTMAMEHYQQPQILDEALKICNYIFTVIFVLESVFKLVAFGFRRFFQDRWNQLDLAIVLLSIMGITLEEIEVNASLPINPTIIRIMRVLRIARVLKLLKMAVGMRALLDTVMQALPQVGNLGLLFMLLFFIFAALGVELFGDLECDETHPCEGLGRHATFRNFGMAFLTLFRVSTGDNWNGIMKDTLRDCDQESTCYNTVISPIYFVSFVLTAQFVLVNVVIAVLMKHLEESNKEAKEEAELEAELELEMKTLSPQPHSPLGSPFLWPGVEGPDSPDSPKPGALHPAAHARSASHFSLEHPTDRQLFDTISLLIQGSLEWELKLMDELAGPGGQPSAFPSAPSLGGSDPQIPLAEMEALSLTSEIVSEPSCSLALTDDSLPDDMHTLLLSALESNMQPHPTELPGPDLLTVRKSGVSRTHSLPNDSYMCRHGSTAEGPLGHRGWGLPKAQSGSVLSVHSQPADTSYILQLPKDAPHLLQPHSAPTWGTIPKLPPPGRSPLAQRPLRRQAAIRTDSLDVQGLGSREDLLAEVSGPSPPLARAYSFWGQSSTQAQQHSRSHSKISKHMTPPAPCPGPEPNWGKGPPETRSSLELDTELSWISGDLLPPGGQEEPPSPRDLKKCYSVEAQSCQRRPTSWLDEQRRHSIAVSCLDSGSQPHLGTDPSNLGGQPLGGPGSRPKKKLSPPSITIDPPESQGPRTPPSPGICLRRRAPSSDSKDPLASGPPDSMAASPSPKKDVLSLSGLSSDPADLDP

Structure (SMILES)	IC50
Nc1ccc(CNC(=O)CC2c3ccccc3N=C(N3CCCCC3)N2c2ccccc2)cc1 (stereo not drawn)	13 µM
CCN1C(N(C)C)=Nc2ccccc2C1CC(=O)NCc1ccc(NS(=O)(=O)c2ccc(F)cc2)cc1 (stereo not drawn)	4.1 µM
CCN1C(N2CCCCC2)=Nc2ccccc2C1CC(=O)NCc1ccccc1 (stereo not drawn)	4.58 µM
CCN1C(N(C)C)=Nc2ccccc2C1CC(=O)NCc1ccccc1 (stereo not drawn)	24.2 µM
COC(=O)CC1c2ccccc2N=C(Nc2ccccc2)N1CCCCCNC(=O)OC(C)(C)C (stereo not drawn)	2.27 µM
NCCCCCNC1=Nc2ccccc2C(CC(=O)NCc2ccccc2)N1c1ccccc1 (stereo not drawn)	3.13 µM
CCN1C(N(C)C)=Nc2ccccc2C1CC(=O)NCc1ccc([N+](=O)[O-])cc1 (stereo not drawn)	2.17 µM
CN(C)C1=Nc2ccccc2C(CC(=O)NCc2ccc(NS(=O)(=O)c3ccc(F)cc3)cc2)N1c1ccccc1 (stereo not drawn)	0.43 µM
O=C(CC1c2ccccc2N=C(N2CCCCC2)N1c1ccccc1)NS(=O)(=O)c1cccs1 (stereo not drawn)	1.01 µM
CCN1C(N(C)C)=Nc2cc(N)ccc2C1CC(=O)NCc1ccc(N)cc1 (stereo not drawn)	12.7 µM
NCCCCCN1C(Nc2ccccc2)=Nc2ccccc2C1CC(=O)NCc1ccccc1 (stereo not drawn)	4.54 µM

Continued by falling IC50, values first:

IC50	Structure (SMILES)
9.16 µM	COC(=O)CC1c2ccccc2N=C(Nc2ccccc2)N1CCCCCN (stereo not drawn)
2.34 µM	O=C(CC1c2ccccc2N=C(N2CCCCC2)N1c1ccccc1)NCc1ccc([N+](=O)[O-])cc1 (stereo not drawn)
2.02 µM	COC(=O)CC1c2ccccc2N=C(NCCCCCNC(=O)OC(C)(C)C)N1c1ccccc1 (stereo not drawn)
1.84 µM	COC(=O)CC1c2ccccc2N=C(NCCCCCN)N1c1ccccc1 (stereo not drawn)
1.2 µM	CC(C)(C)OC(=O)NCCCCCN1C(Nc2ccccc2)=Nc2ccccc2C1CC(=O)NCc1ccccc1 (stereo not drawn)
1.12 µM	CCN1C(N(C)C)=Nc2ccccc2C1CC(=O)NCc1ccc(NS(=O)(=O)c2ccc(C)cc2)cc1 (stereo not drawn)
0.869 µM	CCN1C(N2CCCCC2)=Nc2ccccc2C1CC(=O)NCc1ccc([N+](=O)[O-])cc1 (stereo not drawn)
